# Source: US10927115B2, “Substituted heterocycles for targeting Hsp90” (Duke University, priority 2012, dated 2021)
# Experiments:
# Hsp90 and GRP94 = test: Purinome captured on ATP Sepharose interrogated with compounds in parallel; eluted proteins identified by MS; format: binding, pig; settings: FIG. 3; SDS-PAGE silver staining, mass spectrometry
# From the text: The purinome was captured from pig mammary gland extract as described (Hughes et al., Bioorg Med Chem. 2012, 20(10):3298-3305) on gamma phosphate linked ATP Sepharose. Following extensive washing with physiological buffers to remove non-specifically associated proteins, the resin was divided equally and interrogated with the indicated compounds in parallel as described (Hughes et al 2012). All eluted proteins were characterized by SDS-PAGE and silver staining, and then identified by mass spectrometry. […] Key: GRP94, glucose regulated protein 94; Hsp90, heat shock protein 90; LAPT, lapatinimb; Hsp90 STD, purified Hsp90; 17-AAG, derivatized form of geldanamycin, BLK, vehicle control consisting of buffer containing 10% DMSO used to solubilize all compounds included in the test.
# Hsp90 [1] = test: Affinity resin capture of Hsp90 from pig mammary gland extract (SDS-PAGE silver stain, MS sequencing); format: binding; settings: 1 mM compound 5 pre-incubated in the tissue extract
# Protocol: Several media were prepared as described in Example 7, using compounds 6, 7, 8 and 9. These resins were termed A, B, C and D respectively. To prepare the resin in each case, the appropriate compound was added at 1-10 μmol/gram of resin in minimal methanol.
# The ability of each resin to selectively capture Hsp90 from pig mammary gland extract, a tissue shown to be high in ATP binding proteins including native forms of Hsp90, GRP94 and TRAP1, was evaluated. The resin was incubated in the protein solution then washed with a high salt buffer. The bound proteins were removed via an SDS boil procedure, separated by SDS-PAGE electrophoresis, located by silver staining and identified using mass spectrometry (MS) sequencing. […] In the case of resin E (Example 7), bound proteins were eluted with 25 mM sodium dithionite in phosphate-buffered saline.
# MCF7 cells = test: Compound 10 fluorescence in MCF7 cells with anti-Hsp90 antibody or competing compound 5; format: cell-based; settings: FIG. 6C
# Protocol: In FIG. 6B, the compound was added in the presence of an antibody to Hsp90. […] DAPI (blue) highlights the nucleus of the cell. In FIG. 6 the green staining from compound 10 fluorescence appears white, while blue from the DAPI-stained nuclei appears gray.
# BT474 cells = test: Competition of compound 10 signal by compound 5 in permeabilized cells (plate reader fluorescence); format: cell-based; settings: compound 5 0-10 μM; escin; 30 minutes; Ex488/Em522 nm; FIG. 9
# Protocol: BT474 cells were incubated with varying doses of compound 5 (0 μM, 0.01 μM, […], 1 μM and 10 μM) in the presence of a fixed concentration of compound 10 ([…]) and a cell permeabilizing agent (escin) for 30 minutes. The cells were then washed to remove the free probe and cell extracts prepared from the homogenized cells. The amount of drug uptake was then measured by fluorescence (Ex488/Em522 nm) in a micro plate fluorescence reader.
# GRP94 = molecular target: T1, GRP94 (Sus scrofa, UniProt Q29092); test: Elution of pig mammary gland proteins from gamma phosphate linked ATP Sepharose with increasing amounts of compound; format: binding; settings: FIG. 2
# T1 construct: The ATP resin was charged with the pig mammary gland extract; from tissue; host or cells: pig mammary gland extract captured on gamma phosphate linked ATP Sepharose
# From the text: (§1) The ATP resin was charged with the pig mammary gland extract and aliquots were distributed into individual wells.
# Hsp90 [2] = test: as above; format: binding; settings: FIG. 2
# From the text: as §1
# T1 sequence (Q29092 22-804): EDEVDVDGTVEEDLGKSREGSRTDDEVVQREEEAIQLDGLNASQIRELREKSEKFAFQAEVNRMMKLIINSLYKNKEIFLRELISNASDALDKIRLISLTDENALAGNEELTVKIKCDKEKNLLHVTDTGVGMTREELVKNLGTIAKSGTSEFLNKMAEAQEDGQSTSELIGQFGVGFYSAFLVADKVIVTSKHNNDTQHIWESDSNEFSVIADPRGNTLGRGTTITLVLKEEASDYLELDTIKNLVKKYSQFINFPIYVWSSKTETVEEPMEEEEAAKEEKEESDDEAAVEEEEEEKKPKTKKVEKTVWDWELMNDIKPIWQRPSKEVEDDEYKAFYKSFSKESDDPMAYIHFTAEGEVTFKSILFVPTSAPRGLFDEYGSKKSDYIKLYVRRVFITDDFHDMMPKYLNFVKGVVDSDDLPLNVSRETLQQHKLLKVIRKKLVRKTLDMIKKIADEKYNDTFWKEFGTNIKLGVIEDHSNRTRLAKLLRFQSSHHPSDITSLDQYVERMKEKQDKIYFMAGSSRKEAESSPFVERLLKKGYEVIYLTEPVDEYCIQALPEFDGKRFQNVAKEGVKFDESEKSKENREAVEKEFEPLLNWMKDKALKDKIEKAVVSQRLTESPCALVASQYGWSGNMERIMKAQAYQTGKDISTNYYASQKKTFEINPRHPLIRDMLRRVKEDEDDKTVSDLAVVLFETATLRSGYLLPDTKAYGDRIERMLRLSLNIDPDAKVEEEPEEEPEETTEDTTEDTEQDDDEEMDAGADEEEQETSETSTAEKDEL
Compound,proteins recognized (eluted from ATP Sepharose) (Hsp90 and GRP94),further results
"2-((19-di(ferrocenemethylamino)-4,7,10,13,16-pentaoxanonadecyl)amino)-4-(3,6,6-trimethyl-4-oxo-4,5,6,7-tetrahydro-1H-indazol-1-yl)benzamide [Compound 27]",only recognize Hsp90,–
"17-alkylamino-17-desmethoxygeldanamycin [Compound 17-AAG, reference compound]",specificity for both Hsp90 and GRP94,–
"Cc1nn(-c2ccc(C(N)=O)c(N[C@H]3CC[C@H](O)CC3)c2)c2c1C(=O)CC(C)(C)C2 [Compound 5, 2-(((1r,4r)-4-Hydroxycyclohexyl)amino)-4-(3,6,6-trimethyl-4-oxo-4,5,6,7-tetrahydro-1H-indazol-1-yl)benzamide, reference compound]",specificity for both Hsp90 and GRP94,competition of protein binding to the resins (Hsp90 [1]): clean exclusion of Hsp90 but not other proteins; competition of compound 10 fluorescence signal (MCF7 cells): competes away the fluorescence signal; competition of the signal from compound 10 (BT474 cells): effectively competed
"Cc1nn(-c2ccc(C(N)=O)c(NCCCOCCOCCOCCOCCOCCCN)c2)c2c1C(=O)CC(C)(C)C2 [Compound 8, 2-((19-Amino-4,7,10,13,16-pentaoxanonadecyl)amino)-4-(3,6,6-trimethyl-4-oxo-4,5,6,7-tetrahydro-1H-indazol-1-yl)benzamide]",only recognize Hsp90,elution of GRP94 from ATP resin (GRP94): essentially no elution
"Cc1nn(-c2ccc(C(N)=O)c(NCCCOCCOCCOCCOCCOCCCNc3ccc([N+](=O)[O-])c4nonc34)c2)c2c1C(=O)CC(C)(C)C2 [Compound 11, 2-((19-((7-nitrobenzo[c][1,2,5]oxadiazol-4-yl)amino)-4,7,10,13,16-pentaoxanonadecyl)amino)-4-(3,6,6-trimethyl-4-oxo-4,5,6,7-tetrahydro-1H-indazol-1-yl)benzamide]",only recognize Hsp90,–
"Cc1nn(-c2ccc(C(N)=O)c(NCCCOCCOCCOCCOCCO)c2)c2c1C(=O)CC(C)(C)C2 [Compound 19, 2-((1-hydroxy-3,6,9,12-tetraoxapentadecan-15-yl)amino)-4-(3,6,6-trimethyl-4-oxo-4,5,6,7-tetrahydro-1H-indazol-1-yl)benzamide]",only recognize Hsp90,–
"Cc1nn(-c2ccc(C(N)=O)c(NCCCOCCOCCOCCOCCOCCCNc3cc(-n4nc(C)c5c4CC(C)(C)CC5=O)ccc3C(N)=O)c2)c2c1C(=O)CC(C)(C)C2 [Compound 20, 2,2′-(4,7,10,13,16-pentaoxanonadecane-1,19-diylbis(azanediyl))bis(4-(3,6,6-trimethyl-4-oxo-4,5,6,7-tetrahydro-1H-indazol-1-yl)benzamide)]",only recognize Hsp90,–
"Cc1nn(-c2ccc(C(N)=O)c(N[C@H]3CC[C@H](N)CC3)c2)c2c1C(=O)CC(C)(C)C2 [Compound 28, 2-(((1r,4r)-4-aminocyclohexyl)amino)-4-(3,6,6-trimethyl-4-oxo-4,5,6,7-tetrahydro-1H-indazol-1-yl)benzamide]",only recognize Hsp90,–
"Cc1nn(-c2ccc(C(N)=O)c(N[C@H]3CC[C@H]([N+](C)(C)C)CC3)c2)c2c1C(=O)CC(C)(C)C2 [Compound 29, (1r,4r)-4-((2-carbamoyl-5-(3,6,6-trimethyl-4-oxo-4,5,6,7-tetrahydro-1H-indazol-1-yl)phenyl)amino)-N,N,N-trimethylcyclohexanaminium]",only recognize Hsp90,–
CC(C)NCCCn1c(Sc2cc3c(cc2I)OCO3)nc2c(N)ncnc21 [PU-H71],specificity for both Hsp90 and GRP94,elution of GRP94 from ATP resin (GRP94): strong potency; elution of Hsp90 from ATP resin (Hsp90 [2]): strong potency
CC1(C)CC(=O)c2c(C(F)(F)F)nn(-c3ccc(C(N)=O)c(N[C@H]4CC[C@H](O)CC4)c3)c2C1 [SNX-2112],–,elution of GRP94 from ATP resin (GRP94): weaker affinity
